Measurements: US10618903B2, “Heteroaryl substituted aminopyridine compounds” (BRISTOL-MYERS SQUIBB COMPANY, priority 2015, dated 2020)

How the values were obtained:
Caco Permeability Assay = assay type: in vitro ADME; conditions: human, Caco-2, Caco-2 cells, 3 μM compound
[1] = tested on: IL-6 levels in human whole blood stimulated with a TLR2 agonist; test: IRAK4 Whole Blood Assay (lipoteichoic acid/TLR2-stimulated IL-6); assay type: cell-based; conditions: Homo sapiens, lipoteichoic acid 10 μg/mL, IL-6 readout
Procedure, shortened: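 ACD-A-anticoagulated human whole blood was preincubated with compounds for 60 min at 37 °C under 5% CO2. It was then stimulated with 10 μg/mL lipoteichoic acid (final) in RPMI for 5 h. IL-6 in plasma supernatants was measured by flow cytometry bead assay.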

IRAK4 = IRAK4 (Homo sapiens (Human), UniProt Q9NWZ3); test: IRAK4 Inhibition Assay; assay type: biochemical; conditions: ATP 500 μM; IRAK4 0.6 nM
Procedure, shortened: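 Mobility-shift readout: phosphorylated and unphosphorylated fluorescent peptide (1.5 μM) resolved by electrophoresis after a 60 min room-temperature reaction stopped with EDTA. Reaction holds 0.6 nM IRAK4, 500 μM ATP and 1.6% DMSO in HEPES pH 7.2/MgCl2/Brij 35/DTT buffer; percent inhibition set against vehicle and no-enzyme controls.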

IRAK4, sequence (Q9NWZ3 whole entry): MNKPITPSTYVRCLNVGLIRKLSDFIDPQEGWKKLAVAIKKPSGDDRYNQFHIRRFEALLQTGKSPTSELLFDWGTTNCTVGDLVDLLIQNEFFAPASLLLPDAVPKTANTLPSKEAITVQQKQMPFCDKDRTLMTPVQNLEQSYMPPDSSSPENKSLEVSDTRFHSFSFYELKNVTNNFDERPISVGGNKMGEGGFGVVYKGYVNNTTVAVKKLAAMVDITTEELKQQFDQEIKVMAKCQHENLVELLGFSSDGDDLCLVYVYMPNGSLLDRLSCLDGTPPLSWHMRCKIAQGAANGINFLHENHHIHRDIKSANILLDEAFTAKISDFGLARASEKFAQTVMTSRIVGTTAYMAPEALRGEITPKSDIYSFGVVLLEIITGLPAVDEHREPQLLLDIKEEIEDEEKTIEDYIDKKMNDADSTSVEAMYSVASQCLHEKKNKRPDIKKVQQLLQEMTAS

SMILES	Papp at 2 h, 3 µM (Caco Permeability Assay) [×10⁻⁶ cm/s]	EC50 [1] [nM]	IC50 (IRAK4) [nM]
CC(F)(F)Cn1cc(Nc2cc(-c3cnn4cc(Cl)cnc34)ncc2C(=O)NC[C@@H](F)C(C)(C)O)cn1 [Example 239, (R)-6-(6-chloropyrazolo[1,5-a]pyrimidin-3-yl)-4-((1-(2,2-difluoropropyl)-1H-pyrazol-4-yl)amino)-N-(2-fluoro-3-hydroxy-3-methylbutyl)nicotinamide]	14.4	350	1
COCCn1cc(Nc2cc(-c3cnn4cc(C#N)cnc34)ncc2C(=O)NC[C@@H](F)C(C)(C)O)cn1 [Example 243, (R)-6-(6-cyanopyrazolo[1,5-a]pyrimidin-3-yl)-N-(2-fluoro-3-hydroxy-3-methylbutyl)-4-((1-(2-methoxyethyl)-1H-pyrazol-4-yl)amino)nicotinamide]	< 1.5	160	3
Cc1cc(Nc2cc(-c3cnn4cc(C#N)cnc34)ncc2C(=O)NC[C@@H](F)C(C)(C)O)n(C)n1 [Example 244, (R)-6-(6-cyanopyrazolo[1,5-a]pyrimidin-3-yl)-4-((1,3-dimethyl-1H-pyrazol-5-yl)amino)-N-(2-fluoro-3-hydroxy-3-methylbutyl)nicotinamide]	< 1.5	380	8
CC(C)(O)[C@H](F)CNC(=O)c1cnc(-c2cnn3cc(Cl)cnc23)cc1Nc1cnn(C2CC2)c1 [Example 246, (R)-6-(6-chloropyrazolo[1,5-a]pyrimidin-3-yl)-4-((1-cyclopropyl-1H-pyrazol-4-yl)amino)-N-(2-fluoro-3-hydroxy-3-methylbutyl)nicotinamide]	4.7	130	1
CC(C)Cn1cc(Nc2cc(-c3cnn4cc(Cl)cnc34)ncc2C(=O)NC[C@@H](F)C(C)(C)O)cn1 [Example 247, (R)-6-(6-chloropyrazolo[1,5-a]pyrimidin-3-yl)-N-(2-fluoro-3-hydroxy-3-methylbutyl)-4-((1-isobutyl-1H-pyrazol-4-yl)amino)nicotinamide]	8.1	360	2
CC(C)(O)[C@H](F)CNC(=O)c1cnc(-c2cnn3cc(C#N)cnc23)cc1Nc1cnn(CC2CC2)c1 [Example 249, (R)-6-(6-cyanopyrazolo[1,5-a]pyrimidin-3-yl)-4-((1-(cyclopropylmethyl)-1H-pyrazol-4-yl)amino)-N-(2-fluoro-3-hydroxy-3-methylbutyl)nicotinamide]	< 1.5	400	2
CC(C)(O)[C@H](F)CNC(=O)c1cnc(-c2cnn3cc(Cl)cnc23)cc1Nc1cnn(C2CCC2)c1 [Example 250, (R)-6-(6-chloropyrazolo[1,5-a]pyrimidin-3-yl)-4-((1-cyclobutyl-1H-pyrazol-4-yl)amino)-N-(2-fluoro-3-hydroxy-3-methylbutyl)nicotinamide]	6.6	200	1
CC(C)(O)[C@H](F)CNC(=O)c1cnc(-c2cnc3cc(C#N)cnn23)cc1Nc1cnn(CC(F)F)c1 [Example 260, (R)-6-(7-cyanoimidazo[1,2-b]pyridazin-3-yl)-4-((1-(2,2-difluoroethyl)-1H-pyrazol-4-yl)amino)-N-(2-fluoro-3-hydroxy-3-methylbutyl) nicotinamide]	< 1.5	80	3
CC(C)(F)[C@H](F)CNC(=O)c1cnc(-c2cnc3cc(Cl)cnn23)cc1Nc1cnn(CC(F)F)c1 [Example 263, (R)-6-(7-chloroimidazo[1,2-b]pyridazin-3-yl)-N-(2,3-difluoro-3-methylbutyl)-4-((1-(2,2-difluoroethyl)-1H-pyrazol-4-yl)amino)nicotinamide]	21.3	300	2
CCn1cc(Nc2cc(-c3cnc4cc(Cl)cnn34)ncc2C(=O)NC[C@@H](F)C(C)(C)O)cn1 [Example 266, (R)-6-(7-chloroimidazo[1,2-b]pyridazin-3-yl)-4-((1-ethyl-1H-pyrazol-4-yl)amino)-N-(2-fluoro-3-hydroxy-3-methylbutyl) nicotinamide]	2.9	570	3
CCn1cc(Nc2cc(-c3cnc4cc(C#N)cnn34)ncc2C(=O)NC[C@@H](F)C(C)(C)O)cn1 [Example 267, (R)-6-(7-cyanoimidazo[1,2-b]pyridazin-3-yl)-4-((1-ethyl-1H-pyrazol-4-yl)amino)-N-(2-fluoro-3-hydroxy-3-methylbutyl)nicotinamide]	< 1.5	130	2
CC(C)(O)[C@H](F)CNC(=O)c1cnc(-c2cnc3cc(Cl)cnn23)cc1Nc1cnn(C2CC(F)(F)C2)c1 [Example 277, (R)-6-(7-chloroimidazo[1,2-b]pyridazin-3-yl)-4-((1-(3,3-difluorocyclobutyl)-1H-pyrazol-4-yl)amino)-N-(2-fluoro-3-hydroxy-3-methylbutyl)nicotinamide]	3.6	490	2

Second part, the compound after the results:

Papp at 2 h, 3 µM (Caco Permeability Assay) [×10⁻⁶ cm/s]	EC50 [1] [nM]	IC50 (IRAK4) [nM]	SMILES
< 1.5	180	2	Cn1cc(Nc2cc(-c3cnn4cc(C#N)cnc34)ncc2C(=O)NC[C@@H](F)C(C)(C)O)cn1 [Example 240, (R)-6-(6-cyanopyrazolo[1,5-a]pyrimidin-3-yl)-N-(2-fluoro-3-hydroxy-3-methylbutyl)-4-((1-methyl-1H-pyrazol-4-yl)amino)nicotinamide]
2.1	60	2	COCCn1cc(Nc2cc(-c3cnn4cc(Cl)cnc34)ncc2C(=O)NC[C@@H](F)C(C)(C)O)cn1 [Example 242, (R)-6-(6-chloropyrazolo[1,5-a]pyrimidin-3-yl)-N-(2-fluoro-3-hydroxy-3-methylbutyl)-4-((1-(2-methoxyethyl)-1H-pyrazol-4-yl)amino) nicotinamide]
1.8	410	4	CC(F)(F)Cn1ccc(Nc2cc(-c3cnn4cc(C#N)cnc34)ncc2C(=O)NC[C@@H](F)C(C)(C)O)n1 [Example 245, (R)-6-(6-cyanopyrazolo[1,5-a]pyrimidin-3-yl)-4-((1-(2,2-difluoropropyl)-1H-pyrazol-3-yl)amino)-N-(2-fluoro-3-hydroxy-3-methylbutyl)nicotinamide]
< 1.5	370	2	CC(C)(O)[C@H](F)CNC(=O)c1cnc(-c2cnn3cc(C#N)cnc23)cc1Nc1cnn(C2CC2)c1 [Example 248, (R)-6-(6-cyanopyrazolo[1,5-a]pyrimidin-3-yl)-4-((1-cyclopropyl-1H-pyrazol-4-yl)amino)-N-(2-fluoro-3-hydroxy-3-methylbutyl)nicotinamide]
7.6	410	1	CC(C)(O)[C@H](F)CNC(=O)c1cnc(-c2cnn3cc(Cl)cnc23)cc1Nc1cnn(CC2CC2)c1 [Example 251, (R)-6-(6-chloropyrazolo[1,5-a]pyrimidin-3-yl)-4-((1-(cyclopropylmethyl)-1H-pyrazol-4-yl)amino)-N-(2-fluoro-3-hydroxy-3-methylbutyl)nicotinamide]
4.8	160	1	CC(C)(O)CCNC(=O)c1cnc(-c2cnn3cc(Cl)cnc23)cc1Nc1cnn(CC(F)F)c1 [Example 253, 6-(6-chloropyrazolo[1,5-a]pyrimidin-3-yl)-4-((1-(2,2-difluoroethyl)-1H-pyrazol-4-yl)amino)-N-(3-hydroxy-3-methylbutyl)nicotinamide]
5.9	180	2	CC(C)(F)[C@H](F)CNC(=O)c1cnc(-c2cnc3cc(C#N)cnn23)cc1Nc1cnn(CC(F)F)c1 [Example 258, (R)-6-(7-cyanoimidazo[1,2-b]pyridazin-3-yl)-N-(2,3-difluoro-3-methylbutyl)-4-((1-(2,2-difluoroethyl)-1H-pyrazol-4-yl)amino)nicotinamide]
< 1.5	130	2	CC(C)(O)[C@H](F)CNC(=O)c1cnc(-c2cnc3cc(C#N)cnn23)cc1Nc1cnn(C2CC(F)(F)C2)c1 [Example 259, (R)-6-(7-cyanoimidazo[1,2-b]pyridazin-3-yl)-4-((1-(3,3-difluorocyclobutyl)-1H-pyrazol-4-yl)amino)-N-(2-fluoro-3-hydroxy-3-methylbutyl)nicotinamide]
2.6	520	1	CC(C)(O)[C@H](F)CNC(=O)c1cnc(-c2cnc3cc(Cl)cnn23)cc1Nc1cnn(CC(F)F)c1 [Example 262, (R)-6-(7-chloroimidazo[1,2-b]pyridazin-3-yl)-4-((1-(2,2-difluoroethyl)-1H-pyrazol-4-yl)amino)-N-(2-fluoro-3-hydroxy-3-methylbutyl)nicotinamide]
< 1.5	440	2	CC(F)(F)Cn1cc(Nc2cc(-c3cnc4cc(C#N)cnn34)ncc2C(=O)NC[C@@H](F)C(C)(C)O)cn1 [Example 265, (R)-6-(7-cyanoimidazo[1,2-b]pyridazin-3-yl)-4-((1-(2,2-difluoropropyl)-1H-pyrazol-4-yl)amino)-N-(2-fluoro-3-hydroxy-3-methylbutyl)nicotinamide]
7.8	820	3	CC(C)(O)[C@H](F)CNC(=O)c1cnc(-c2cnc3cc(Cl)cnn23)cc1Nc1cnn(C(F)F)c1 [Example 270, (R)-6-(7-chloroimidazo[1,2-b]pyridazin-3-yl)-4-((1-(difluoromethyl)-1H-pyrazol-4-yl)amino)-N-(2-fluoro-3-hydroxy-3-methylbutyl) nicotinamide]
